From patent publication US6582713B2, “Compositions and methods for promoting wound healing” (Univ. of Colorado - Colorado Springs, priority 2000, dated 2003)
Several values for one entry are separate records, joined by “and”; a condition that tells them apart may be missing. Equal values may be shown once. Marks after values point to notes of the source that are not given here.

Assays:
unsealed wound = test: Effect of three day insulin treatment on unsealed wound in vivo; parameters: species or system mice; settings: 100 micro liters applied to unsealed incision, photographs daily for one week
Description: Six mice were anesthetized with avetin Q 15-18 micro liters per gram body weight. An area on the back of the neck was swabbed with alcohol and shaved. A single vertical incision was made with scissors. One hundred micro liters of insulin was applied to three mice and 100 micro liters of water was applied to the other three. Photographs of the wounds were taken on a daily basis for one week.

[1] = Blood glucose level after treatment injected into incision sealed with cyanoacrylate; type: in vivo, mice; settings: for Blood Glucose Level: individual mice
Description: Twelve mice were used in the study. Each mouses' blood glucose level was tested at the start of the study. The mice were then weighted and anesthetized. The back of the neck was shaved and a single incision was made. The incision was then sealed with cyanoacrylate polymer which was applied and allowed to set for 1½ minutes. The treatment (glucose, water, insulin, or insulin plus glucose) as described above were injected into the incision. […] On day 1, blood glucose was again measured and the wound was photographed. This was repeated on days 3, 5, and 7. Mouse numbers 1, 2, and 3 received glucose treatment. Mouse numbers 4, 5, and 6 received water (control). Mouse numbers 7, 8, and 9 received insulin plus glucose. Mouse numbers 10, 11, and 12 received insulin.

insulin
wound healing compared with water (unsealed wound): More complete wound healing | Blood Glucose Level ([1]; 0 Hr (start of study, before treatment)): 89 mg/dL and 104 mg/dL and 118 mg/dL | Blood Glucose Level ([1]; 0.5 Hr, incision sealed with cyanoacrylate): 58 mg/dL and 36 mg/dL and 46 mg/dL | Blood Glucose Level ([1]; 3.0 Hr., incision sealed with cyanoacrylate): <25 mg/dL | Blood Glucose Level ([1]; 21 Hr., incision sealed with cyanoacrylate): <25 mg/dL (2×) and 113 mg/dL | Blood Glucose Level ([1]; 69 Hr., incision sealed with cyanoacrylate): <25* mg/dL and 109 mg/dL | death of mouse ([1]; by 69 Hr., individual mouse): Died | effect on levels of blood glucose compared with control water treatment ([1]; summary of Table 1): dramatic effects
